Laboratory results published in article PMC7464503, “Antioxidant and Antibacterial Properties of Carbosilane Dendrimers Functionalized with Polyphenolic Moieties” (Pharmaceutics, 2020).
≈ marks a conversion by molar mass, not a printed value.

How the values were obtained:
[1] = Cyclic voltammetry, electrochemical characterization of the antioxidant capacity; type: physicochemical; details: for Ep (peak potential) / Ip (peak intensity) / ΔEp (difference between anodic and cathodic peak): glassy carbon electrode, ± SD of three measurements; for Ep (peak potential): 20 mM acetate buffer pH 3.6, vs Ag|AgCl|KCl (3M); for Ip (peak intensity) / ΔEp (difference between anodic and cathodic peak): 20 mM acetate buffer pH 3.6
Method: Electrochemical measurements were carried out on an Autolab PGSTAT 12 potentiostat from Metrohm (Utrecht, The Netherlands), employing a glassy carbon (GC) disk working electrode. The GC electrode was polished after each measurement using a 0.1 and 0.05 µm alumina/water slurry until a shiny mirror-like finish was achieved, and washed with ultrapure water. Electrodes were modified with 1 mM solutions of each compound (L, G1, and G2) in MeOH; 5 µL drops were drop-cast in the electrode and allowed to dry before the measurements. Electrochemical measurements were performed in a 20 mM acetate buffer solution (pH 3.6), employing an Ag|AgCl|KCl (3M) reference electrode and a platinum wire as a counterelectrode.
Electrochemical characterization of the antioxidant capacity: The electrochemical behavior of the synthesized polyphenolic dendrimers (1–6), together with the free polyphenol (L), has been investigated using cyclic voltammetry (CV). CV is a powerful electrochemical technique that can be employed to study the ability of a molecule to undergo electron transfer and to estimate the antioxidant activity through the peak potential (Ep), intensity (ip), and reversibility (ΔEp). A lowering in the Ep or ΔEp and an increase in the ip are indicative of higher antioxidant activity.

[2] = test system: Escherichia coli (CECT 515); experiment: In vitro antibacterial activity (ISO 20776-1:2006), turbidity at 625 nm; type: cell-based; details: CECT515, E. coli, 24 h at 37 °C, 1% DMSO, tested up to 16 ppm, read-out: MIC50
Method: (§1) In vitro antibacterial analysis of dendritic polyphenols was performed following the international standard method ISO 20776-1:2006 [22]. The antibacterial activity was assayed in two different bacteria, Escherichia coli (CECT 515) and Staphylococcus aureus (CECT 240), both obtained from the Spanish Type Culture Collection in lyophilized form. The biocide solutions were prepared following the EUCAST (European Committee for Antimicrobial Susceptibility Testing) protocol for hydrophobic compounds. For this purpose, stock solutions in DMSO of each compound were made and then, subsequent dilutions in Mueller-Hinton […] (Scharlau, ref. 02–136) were developed to obtain the testing concentrations (from 0.0312 ppm to 16 ppm) with 1% of DMSO. The assay was carried out in 96-well plates, with two different wells for each concentration and with different controls (biocide, inoculum, culture medium, and DMSO). The bacteria were inoculated at a concentration of 10^5 CFU/mL in wells. After 24 h of incubation with biocides at 37 °C, the increase of turbidity at 625 nm was determined using an Ultra Microplate reader (BIO-TECK Instruments, model ELx808). MIC50 and MIC80 values were the concentrations of the compounds with an optical density of 50% and 20% compared to nontreated bacteria.

[3] = test system: Staphylococcus aureus (CECT 240); experiment: as above; type: cell-based; details: CECT240, S. aureus, 24 h at 37 °C, 1% DMSO, tested up to 16 ppm; for IC50: read-out: MIC50; for IC80: read-out: MIC80
Method: as §1

HFF-1 cells = experiment: Cell viability by MTT assay; type: cell-based, human; details: HFF-1, 16 ppm, 24 h
Method: (§2) HFF-1 cells were grown routinely in DMEM (Dulbecco’s modified Eagle’s medium, Sigma Aldrich, St. Louis, MO, USA, ref. D6429) supplemented with 10% fetal bovine serum (FBS, Sigma Aldrich, ref. F7524) and 1% penicillin/streptomycin/amphotericin B (Sigma Aldrich, ref. A5955) at 37 °C and 5% CO2. Cells were seeded in 96-well plates (Nunclon Delta Surface, Thermo Fischer Scientific, Waltham, MA, USA; 8 × 10^3 cells per well) and grown in a complete DMEM medium for 24 h. Cell viability was determined by MTT assay (MTT, 3-(4,5-dimethyl-2-thiazolyl)-2,5-diphenyl-2H-tetrazolium bromide). A stock compound solution was prepared in DMSO. Then, dilutions in cell culture were made to obtain the final concentrations with 1% of DMSO per well. […] After incubation, MTT was added at a concentration of 5 mg/mL and plates were incubated for 3 h. Finally, the culture medium was removed and the purple formazan crystals formed by the mitochondrial dehydrogenase and reductase activity of vital cells were dissolved in DMSO. The optical density, directly proportional to the number of surviving cells, was quantified at 570/630 nm in a spectrophotometer BioTEK 800 (Izasa). The assay was carried out in triplicate, with eight different wells for each concentration and with different controls (culture medium and DMSO).

[4] = Cell viability by MTT assay; type: cell-based, human; details: human; for viability at 24 h, 8 ppm: HFF-1, 8 ppm; for viability at 24 h, 16 ppm: HFF-1, 16 ppm
Method: as §2

[5] = DPPH free radical-scavenging assay; details: stated as the same activity as the cited polyether dendrimers
Method: This method involves the radical concentration reduction by the antioxidant agent, which entails absorbance reduction and increasing compound concentration. When antioxidants are mixed with DPPH solution, the color turns from purple to yellow, with the maximum absorption at 530 nm. The ability of dendritic polyphenols to scavenge the DPPH radical was evaluated. An aliquot of 100 µL of different stock sample concentrations in the range of 0.01 and 100 µM in methanol was added to a volume of 900 µL of a DPPH stock solution (0.12 mM) in a DMSO/H2O (1:1) mixture. The mixture was shaken, kept in the dark at room temperature, and recorded at 530 nm every 5 min up to 30 min. The blank was constituted by methanol instead of the sample.
The IC50 of DPPH scavenging activity and EC50 of FRAP capacities were calculated following similar protocols. Firstly, for each concentration, it was necessary to calculate the DPPH remnant, as well as the Fe(II) that formed, through the following equations: 1. DPPHREM(%)=(As/Ac)×100 2. Fe(II)FOR(%)=(As−Ac/Ac)×100 where REM = remnant, FOR = formed, As = Sample absorbance, and Ac = Control absorbance. The graphical representation of the percentage of the remnant or formed reagent versus the −log[X] […] The results are expressed as mean ± SEM and are representative of at least three independent experiments.

[6] = G2 compared to free polyphenol L

Row | Structure (SMILES) | Ep (peak potential) [1] [V] | Ip (peak intensity) [1] [µA] | ΔEp (difference between anodic and cathodic peak) [1] [V] | IC50 [2] [µg/mL] | IC50 [3] [µg/mL] | IC80 [3] [µg/mL] | decrease in ΔEp compared to L [1, 6] [mV] | % Viability (HFF-1 cells) [%] | decrease in the Ep compared to L [1, 6] [mV] | viability at 24 h, 4 ppm ([4]; HFF-1, 4 ppm) [%] | viability at 24 h, 8 ppm [4] [%] | viability at 24 h, 16 ppm [4] [%] | IC50 [5] [µM]
1 | O=C(O)/C=C/c1ccc(O)c(O)c1 [Caffeic L, reference compound] | 0.263 ± 0.005 | 2.91 ± 0.07 | 0.205 ± 0.002 | > 16 | > 16 | > 16 | – | – | – | – | – | – | –
2 | COc1cc(C=CC(=O)O)ccc1O [Ferulic L, 3-(4-hydroxy-3-methoxyphenyl)-2-propenoic acid, reference compound] | 0.686 ± 0.009 | 3.70 ± 0.08 | – | > 16 | > 16 | > 16 | – | – | – | – | – | – | –
3 | C[Si](C)(CCCNC(=O)/C=C/c1ccc(O)c(O)c1)CCC[Si](C)(CCC[Si](C)(C)CCCNC(=O)/C=C/c1ccc(O)c(O)c1)CCC[Si](CCC[Si](C)(CCC[Si](C)(C)CCCNC(=O)/C=C/c1ccc(O)c(O)c1)CCC[Si](C)(C)CCCNC(=O)/C=C/c1ccc(O)c(O)c1)(CCC[Si](C)(CCC[Si](C)(C)CCCNC(=O)/C=C/c1ccc(O)c(O)c1)CCC[Si](C)(C)CCCNC(=O)/C=C/c1ccc(O)c(O)c1)CCC[Si](C)(CCC[Si](C)(C)CCCNC(=O)/C=C/c1ccc(O)c(O)c1)CCC[Si](C)(C)CCCNC(=O)/C=C/c1ccc(O)c(O)c1 [G2 (5), G2-[Si(CH2)3NH(CO)CH=CHCH2Ph(OH)2)]8] | 0.302 ± 0.010 | 0.143 ± 0.09 | 0.120 ± 0.009 | > 16 | > 16 | > 16 | 85 | 100.0 ± 0.0 | – | – | – | – | –
4 | COc1cc(/C=C/C(=O)NCCC[Si](C)(C)CCC[Si](C)(CCC[Si](C)(C)CCCNC(=O)/C=C/c2ccc(O)c(OC)c2)CCC[Si](CCC[Si](C)(CCC[Si](C)(C)CCCNC(=O)/C=C/c2ccc(O)c(OC)c2)CCC[Si](C)(C)CCCNC(=O)/C=C/c2ccc(O)c(OC)c2)(CCC[Si](C)(CCC[Si](C)(C)CCCNC(=O)/C=C/c2ccc(O)c(OC)c2)CCC[Si](C)(C)CCCNC(=O)/C=C/c2ccc(O)c(OC)c2)CCC[Si](C)(CCC[Si](C)(C)CCCNC(=O)/C=C/c2ccc(O)c(OC)c2)CCC[Si](C)(C)CCCNC(=O)/C=C/c2ccc(O)c(OC)c2)ccc1O [G2 (4), G2-[Si(CH2)3NH(CO)CH=CHCH2Ph(OH)(OCH3))]8] | 0.613 ± 0.008 | 0.56 ± 0.02 | – | > 16 | > 16 | > 16 | – | 92.9 ± 7.4 | 73 | – | – | – | –
5 | C[Si](C)(CCCNC(=O)c1cc(O)c(O)c(O)c1)CCC[Si](CCC[Si](C)(C)CCCNC(=O)c1cc(O)c(O)c(O)c1)(CCC[Si](C)(C)CCCNC(=O)c1cc(O)c(O)c(O)c1)CCC[Si](C)(C)CCCNC(=O)c1cc(O)c(O)c(O)c1 [G1 (3), G1-[Si(CH2)3NH(CO)Ph(OH)3]4] | 0.410 ± 0.008 | 4.12 ± 0.07 | – | 16 (≈ 12.6 µM) | 4 (≈ 3.15 µM) | 8 (≈ 6.3 µM) | – | – | – | 84.8 ± 7.5 | 99.1 ± 1 | – | –
6 | O=C(O)c1cc(O)c(O)c(O)c1 [Gallic L, 3,4,5-trihydroxybenzoic acid, reference compound] | 0.477 ± 0.001 | 3.87 ± 0.08 | – | > 16 | > 16 | > 16 | – | – | – | – | – | – | –
7 | COc1cc(/C=C/C(=O)NCCC[Si](C)(C)CCC[Si](CCC[Si](C)(C)CCCNC(=O)/C=C/c2ccc(O)c(OC)c2)(CCC[Si](C)(C)CCCNC(=O)/C=C/c2ccc(O)c(OC)c2)CCC[Si](C)(C)CCCNC(=O)/C=C/c2ccc(O)c(OC)c2)ccc1O [G1 (1), G1-[Si(CH2)3NH(CO)CH=CHCH2Ph(OH)(OCH3))]4] | 0.637 ± 0.002 | 0.75 ± 0.06 | – | > 16 | > 16 | > 16 | – | – | – | – | – | 95.4 ± 6.6 | –
8 | C[Si](C)(CCCNC(=O)/C=C/c1ccc(O)c(O)c1)CCC[Si](CCC[Si](C)(C)CCCNC(=O)/C=C/c1ccc(O)c(O)c1)(CCC[Si](C)(C)CCCNC(=O)/C=C/c1ccc(O)c(O)c1)CCC[Si](C)(C)CCCNC(=O)/C=C/c1ccc(O)c(O)c1 [G1 (2), G1-[Si(CH2)3NH(CO)CH=CHCH2Ph(OH)2)]4] | 0.276 ± 0.009 | 1.39 ± 0.04 | 0.188 ± 0.006 | > 16 | 8 (≈ 6.11 µM) | 16 (≈ 12.2 µM) | – | – | – | – | 98.8 ± 1.7 | 100 | ~5
